Measured values reported in paper PMC2585998 (Molecular cell, 2008).

Biological target: SpoIVA (IVA; His6-SpoIVA) (Bacillus subtilis, UniProt P35149, K30A)
Test: ATPase, ADP production by TLC of alpha-32P-ATP
Assay type: biochemical
Conditions: Walker A mutant, diminished hydrolysis; 10 mM MgCl2, pH 7.5, 37 C

Chain of SpoIVA (IVA; His6-SpoIVA) (P35149 whole entry K30A): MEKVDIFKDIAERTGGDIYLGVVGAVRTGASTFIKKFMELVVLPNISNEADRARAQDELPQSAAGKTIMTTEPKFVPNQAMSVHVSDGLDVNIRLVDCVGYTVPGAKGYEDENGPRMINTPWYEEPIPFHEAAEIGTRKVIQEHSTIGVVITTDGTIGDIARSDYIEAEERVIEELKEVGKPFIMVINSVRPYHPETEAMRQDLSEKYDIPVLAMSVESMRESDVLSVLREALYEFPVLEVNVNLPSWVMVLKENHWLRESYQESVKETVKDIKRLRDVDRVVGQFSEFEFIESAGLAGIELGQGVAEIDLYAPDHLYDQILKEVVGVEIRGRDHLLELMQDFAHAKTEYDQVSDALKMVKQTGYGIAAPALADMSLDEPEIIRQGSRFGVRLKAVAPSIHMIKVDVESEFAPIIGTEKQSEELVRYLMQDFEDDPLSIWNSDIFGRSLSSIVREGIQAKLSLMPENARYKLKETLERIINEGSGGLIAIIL

**Q.** How did the “ATPase, ADP production by TLC of alpha-32P-ATP” value turn out when `Nc1ncnc2c1ncn2[C@@H]1O[C@H](COP(=O)(O)OP(=O)(O)OP(=O)(O)O)[C@@H](O)[C@H]1O` [ATP] was run?
**A.** Its value is “Incubation of ATP with IVA^K30A, in contrast, led to the diminished accumulation of ADP”.
